Source: ChEMBL document CHEMBL2163343, “Sesquiterpene lactones from Tithonia diversifolia act as peroxisome proliferator-activated receptor agonists” (Bioorg Med Chem Lett, 2012)

How the values were obtained:
[1] = biological target: T1, Peroxisome proliferator-activated receptor gamma (Homo sapiens) (UniProt P37231); assay: Agonist activity at human PPARgamma expressed in human HEK293 cells assessed as SHP promoter transactivation by luciferase reporter gene assay relative to vehicle-treated control; format: functional, cell-based
T1 sequence (whole entry): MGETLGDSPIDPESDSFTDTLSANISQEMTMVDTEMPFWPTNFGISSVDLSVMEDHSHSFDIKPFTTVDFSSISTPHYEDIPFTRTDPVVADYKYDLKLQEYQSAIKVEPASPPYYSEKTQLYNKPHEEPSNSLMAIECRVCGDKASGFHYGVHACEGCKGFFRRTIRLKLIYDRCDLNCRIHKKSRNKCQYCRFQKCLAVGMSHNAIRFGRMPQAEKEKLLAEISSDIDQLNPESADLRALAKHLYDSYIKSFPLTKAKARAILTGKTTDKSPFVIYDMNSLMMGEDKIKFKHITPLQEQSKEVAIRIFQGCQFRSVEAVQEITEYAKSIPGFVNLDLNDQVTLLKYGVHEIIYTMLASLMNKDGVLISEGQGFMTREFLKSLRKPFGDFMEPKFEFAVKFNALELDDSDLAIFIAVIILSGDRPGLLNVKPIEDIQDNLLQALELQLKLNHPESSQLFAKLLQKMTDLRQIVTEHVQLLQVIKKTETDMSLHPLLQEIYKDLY

[2] = biological target: T1, Peroxisome proliferator-activated receptor gamma (Homo sapiens); assay: Agonist activity at human PPARgamma expressed in human HEK293 cells assessed as ABCA1 promoter transactivation at 1 uM by luciferase reporter gene assay relative to vehicle-treated control; format: functional, cell-based
[3] = biological target: T1, Peroxisome proliferator-activated receptor gamma (Homo sapiens); assay: Agonist activity at human PPARgamma expressed in human HEK293 cells assessed as ABCA1 promoter transactivation by luciferase reporter gene assay relative to vehicle-treated control; format: functional, cell-based
[4] = biological target: T1, Peroxisome proliferator-activated receptor gamma (Homo sapiens); assay: Agonist activity at human PPARgamma expressed in human HEK293 cells assessed as SHP promoter transactivation at 1 uM by luciferase reporter gene assay relative to vehicle-treated control; format: functional, cell-based
[5] = biological target: T1, Peroxisome proliferator-activated receptor gamma (Homo sapiens); assay: Agonist activity at human PPARgamma expressed in human HEK293 cells assessed as SHP promoter transactivation at 10 uM by luciferase reporter gene assay relative to vehicle-treated control; format: functional, cell-based
[6] = biological target: T2, Peroxisome proliferator-activated receptor alpha (Homo sapiens) (UniProt Q07869); assay: Transactivation of PPARalpha expressed in human HepG2 cells assessed as Sult2a1 expression at 100 nM by luciferase reporter gene assay relative to vehicle-treated control; format: cell-based
T2 sequence (whole entry): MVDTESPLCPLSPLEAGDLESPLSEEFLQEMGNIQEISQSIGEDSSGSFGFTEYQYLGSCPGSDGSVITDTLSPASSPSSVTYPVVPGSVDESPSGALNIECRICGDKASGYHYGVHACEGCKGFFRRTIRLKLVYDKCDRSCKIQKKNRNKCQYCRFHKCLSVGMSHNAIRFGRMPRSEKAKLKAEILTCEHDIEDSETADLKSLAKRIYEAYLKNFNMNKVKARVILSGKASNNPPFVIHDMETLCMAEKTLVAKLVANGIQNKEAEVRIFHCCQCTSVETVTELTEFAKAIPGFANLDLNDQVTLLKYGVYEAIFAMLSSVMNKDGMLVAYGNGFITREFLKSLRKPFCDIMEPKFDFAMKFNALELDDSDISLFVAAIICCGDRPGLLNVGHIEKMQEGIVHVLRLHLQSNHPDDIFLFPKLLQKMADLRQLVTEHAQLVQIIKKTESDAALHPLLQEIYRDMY

[7] = biological target: T1, Peroxisome proliferator-activated receptor gamma (Homo sapiens); assay: Agonist activity at human PPARgamma expressed in human HEK293 cells assessed as ABCA1 promoter transactivation at 10 uM by luciferase reporter gene assay relative to vehicle-treated control; format: functional, cell-based
[8] = biological target: T1, Peroxisome proliferator-activated receptor gamma (Homo sapiens); assay: Agonist activity at human PPARgamma expressed in human HEK293 cells at 10 uM by luciferase reporter gene assay relative to vehicle-treated control; format: functional, cell-based
[9] = biological target: T3, Peroxisome proliferator-activated receptor gamma (Homo sapiens, UniProt P37231); assay: Inhibition of fluormone binding to human PPARgamma LBD after 2 hrs by competitive fluorescence polarization assay
T3 sequence (P37231 whole entry): T1 sequence (whole entry)

[10] = biological target: T2, Peroxisome proliferator-activated receptor alpha (Homo sapiens); assay: Transactivation of PPARalpha expressed in human HepG2 cells assessed as Sult2a1 expression at 10 uM by luciferase reporter gene assay relative to vehicle-treated control; format: cell-based
[11] = biological target: T1, Peroxisome proliferator-activated receptor gamma (Homo sapiens); details: HEK293
Description: Agonist activity at human PPARgamma expressed in human HEK293 cells assessed as ABCA1 promoter transactivation at 100 nM by luciferase reporter gene assay relative to vehicle-treated control

Activity [1] | RLU [2] | Activity [3] | RLU [4] | RLU [5] | RLU [6] | RLU [7] | RLU [8] | IC50 [9] | RLU [10] | RLU [11] | Structure (SMILES)
Dose-dependent effect | 2.1 | Dose-dependent effect | 2.8 | 3.5 | 1.4 | 2.9 | 1.5 | 55 µM | 2.47 |  | C=C1C(=O)O[C@@H]2C[C@H](C)[C@@]3(O)C[C@H](O)[C@@](C)(C[C@@H](OC(=O)C(C)C)[C@@H]12)O3 [TAGITININ A]
Dose-dependent effect | 2.1 | Dose-dependent effect |  | 3.4 | 1.4 | 3.1 | 2 | 27 µM | 2.33 | 1.6 | C=C1C(=O)O[C@@H]2C[C@H](C)[C@@]3(O)CC[C@@](C)(C[C@@H](OC(=O)C(C)C)[C@@H]12)O3 [TIROTUNDIN]
 |  |  |  |  |  |  |  |  | 2.44 |  | CCOC(=O)C(C)(C)Oc1ccc(Cl)cc1
